Patent US9226937B2 (priority 2011, dated 2016)

What was measured:
SIRT1 = biological target: T1, SIRT1 (Homo sapiens, UniProt Q96EB6); experiment: SIRT1 Fluorescent Activity Assay/Drug Discovery Kit AK-555; type: biochemical; conditions: stored under ambient conditions
T1 construct: purchased Biomol Research Laboratories, Inc. AK-555
T1 sequence (Q96EB6 1-747): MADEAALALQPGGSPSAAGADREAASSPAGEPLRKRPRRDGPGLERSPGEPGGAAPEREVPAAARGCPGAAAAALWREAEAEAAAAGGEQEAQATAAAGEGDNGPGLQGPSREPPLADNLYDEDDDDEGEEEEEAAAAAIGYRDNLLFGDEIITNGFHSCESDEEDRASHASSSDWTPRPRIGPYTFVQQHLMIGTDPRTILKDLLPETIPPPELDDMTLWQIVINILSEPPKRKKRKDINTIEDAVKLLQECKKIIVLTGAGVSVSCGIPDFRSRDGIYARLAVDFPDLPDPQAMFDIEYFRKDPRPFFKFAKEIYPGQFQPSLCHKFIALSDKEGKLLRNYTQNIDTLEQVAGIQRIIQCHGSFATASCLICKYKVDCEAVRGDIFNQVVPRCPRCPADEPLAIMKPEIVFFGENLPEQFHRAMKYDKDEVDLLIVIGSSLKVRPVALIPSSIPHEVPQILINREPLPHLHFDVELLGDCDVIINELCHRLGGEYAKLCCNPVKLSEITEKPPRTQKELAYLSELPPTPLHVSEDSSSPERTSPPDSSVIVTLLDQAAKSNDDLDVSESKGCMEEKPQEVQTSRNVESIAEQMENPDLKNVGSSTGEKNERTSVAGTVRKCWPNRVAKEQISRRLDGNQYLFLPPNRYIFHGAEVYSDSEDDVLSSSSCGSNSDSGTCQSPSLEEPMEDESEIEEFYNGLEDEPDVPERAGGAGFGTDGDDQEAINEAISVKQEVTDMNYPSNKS
Text: Small molecules in the form of resveratrol were obtained via ethanol extraction from Vitis vinifera and Polygonum cuspidatum. […] The extract was kept in a nitrogen environment and added to a mixture including approximately 25% by weight quercetin; 33% by weight lecithin; and 9% phytic acid (in the form of rice bran extract). […] The resulting slurry was placed into a capsule-filling machine. Individual dosages were encapsulated in gelatin capsules tinted with titanium oxide (Licaps® capsules available from Capsugel; Greenwood, S.C.; www.capsugel.com). The dosages were encapsulated in a substantially oxygen-free environment using a capsule-filling machine continually flushed with nitrogen (the Capsugel CFS 1000 Capsule Filling and Sealing Machine, available from Capsugel; Greenwood, S.C.; www.capsugel.com). […] These capsule samples were stored under ambient conditions for approximately eight months. The samples were tested for biological activity by determining whether each sample could activate sirtuin enzymes and, in particular, whether the samples stimulated SIRT1 catalytic activity. The samples were tested four months and eight months after encapsulation. Tests were performed using a SIRT1 Fluorescent Activity Assay/Drug Discovery Kit AK-555 (available from Biomol® Research Laboratories, Inc.; Plymouth Meeting, Pa.; www.biomol.com).

cardiac stem cells = conditions: rats, cited from earlier work
rhabdomyosarcoma cells = conditions: low dosage; cited from earlier work
fibrosarcoma cells = conditions: cited from earlier work
injected tumors = conditions: mice with injected tumors; cited from earlier work

With O=c1c(O)c(-c2ccc(O)c(O)c2)oc2cc(O)cc(O)c12 [quercetin] the “biological activity of encapsulated quercetin (ability to stimulate SIRT1 activity compared to when no quercetin is present)” value (SIRT1) was “maintained biological activity”.

For Oc1ccc(/C=C/c2cc(O)cc(O)c2)cc1 [resveratrol, 3,4′,5-trihydroxy-trans-stilbene], the “cardiac functional parameters (left ventricular ejection fraction, fractional shortening)” value (cardiac stem cells; low dose (2.5 mg per kilogram) for two weeks prior to injection of cardiac stem cells) is listed as “significantly improved” and the “stem cell survival and proliferation” value (cardiac stem cells; low dose for two weeks prior to injection of cardiac stem cells) is listed as “enhanced stem cell survival and proliferation”.

For O=P(O)(O)O[C@H]1[C@H](OP(=O)(O)O)[C@@H](OP(=O)(O)O)[C@H](OP(=O)(O)O)[C@@H](OP(=O)(O)O)[C@H]1OP(=O)(O)O [IP6, (2,3,4,5,6-pentaphosphonooxycyclohexyl)dihydrogen phosphate], the “suppression of growth of rhabdomyosarcoma cells” value (rhabdomyosarcoma cells) is listed as 50%, the “survival of mice with injected fibrosarcoma cells” value (fibrosarcoma cells) is listed as “prolong their survival” and the “growth of injected fibrosarcoma cells” value (fibrosarcoma cells; mice) is listed as “reduce the growth”. The “tumor size versus non-treated mice” value (injected tumors) was 50 times smaller.
